This is an account of results in US8722711B2, “Acylbenzene derivative” (Daiichi Sankyo Company, Limited, priority 2010, dated 2014).

Bounds are passed on as bounds.

In this experiment the test system is Male C57/BL6J mice. Description: Mouse oGTT (Oral Glucose Tolerance Test). The class given is in vivo. Particulars: 2 h, fasted 16 to 17 hours, compound 10 mg/kg orally 30 minutes before oral glucose load, AUC from 5 minutes before to 120 minutes after glucose, read-out: percentage decrease in plasma glucose AUC (%) compared with the negative control group. Here is the method:
Mouse oGTT (Oral Glucose Tolerance Test)
A dosing preparation (1 mg/mL of each compound) was produced by suspending in a 0.5 w/v % methyl cellulose solution and then grinding in an agate mortar. Male C57/BL6J mice (Charles River Laboratories Japan, Inc.) were purchased at 6 to 8 weeks of age, and then used at 9 to 13 weeks of age. The mice were fasted from the hours of 17:00 to 18:00 on one day before the test day, and the test was started after 16 to 17 hours-fasting. Five mice were used for each group. Before dosing a compound, blood was collected from the tail vein. Thereafter, a suspension of the compound was orally administered at a dosage of 10 mg/kg. The 0.5 w/v % methyl cellulose solution was administered to a negative control group. Twenty five minutes after dosing the compound, blood was collected from the tail vein, and then thirty minutes after dosing the compound, 30 w/v % glucose solution was orally administered at a volume of 10 mL/kg. Blood was collected from the tail vein 15, 30, 60 and 120 minutes after the glucose administration. Each of the blood samples was centrifuged to obtain the plasma, and the plasma glucose level (mg/dL) was measured with a glucose analyzer (Glucoloader GXT, A&T Corp.). The plasma glucose AUC (mg/dL min) in each mouse was calculated using the plasma glucose values at 5 minutes before and 15, 30, 60 and 120 minutes after the glucose administration. The arithmetic mean of the AUC value was calculated for each group and the percentage decrease in plasma glucose AUC (%) compared with the negative control group was calculated as an index of the efficacy.

`CC[C@@H](Oc1ccc(C(=O)C2CC2)cc1)c1nc(-c2ccc(C(=O)N[C@H](CO)CCO)c(F)c2)no1` [Example 17, 4-(5-{(1R)-1-[4-(Cyclopropylcarbonyl)phenoxy]propyl}-1,2,4-oxadiazol-3-yl)-2-fluoro-N-[(1S)-3-hydroxy-1-(hydroxymethyl)propyl]benzamide]: the inhibition in vivo at 10 mg/kg lay within 5 to 20%.
As for `C[C@@H](Oc1ccc(C(=O)C2CC2)cc1)c1nc(-c2ccc(C(=O)NC3CCCC3O)c(F)c2)no1` (stereo in doubt) [Example 9, 4-(5-{(1R)-1-[4-(Cyclopropylcarbonyl)phenoxy]ethyl}-1,2,4-oxadiazol-3-yl)-2-fluoro-N-[(1R,2R)-2-hydroxycyclopentyl]benzamide], the inhibition in vivo at 10 mg/kg was 5 to 20%.
Turning to `CC[C@@H](Oc1ccc(C(=O)C2(F)CC2)cc1)c1nc(-c2ccc(C(=O)NC(CO)CO)c(F)c2)no1` [Example 14, 2-Fluoro-4-{5-[(1R)-1-{4-[(1-fluorocyclopropyl)carbonyl]phenoxy}propyl]-1,2,4-oxadiazol-3-yl}-N-[2-hydroxy-1-(hydroxymethyl)ethyl]benzamide], the inhibition in vivo at 10 mg/kg was in the range of 5 to 20%.
In the case of `CC[C@@H](Oc1ccc(C(=O)C2CC2)cc1)c1nc(-c2ccc(C(=O)NC[C@@H](O)CO)c(F)c2)no1` [Example 5, 4-(5-{(1R)-1-[4-(Cyclopropylcarbonyl)phenoxy]propyl}-1,2,4-oxadiazol-3-yl)-N-[(2R)-2,3-dihydroxypropyl]-2-fluorobenzamide], the inhibition in vivo at 10 mg/kg lay within 5 to 20%.
The figure for `CC[C@@H](Oc1ccc(C(=O)C2CC2)cc1)c1nc(-c2ccc(C(=O)NC(CO)CO)c(F)c2)no1` [Example 6, 4-(5-{(1R)-1-[4-(Cyclopropylcarbonyl)phenoxy]propyl}-1,2,4-oxadiazol-3-yl)-2-fluoro-N-[2-hydroxy-1-(hydroxymethyl)ethyl]benzamide] is 5 to 20%; for `CC[C@@H](Oc1ccc(C(=O)C(C)C)cc1)c1nc(-c2ccc(C(=O)N[C@H](C)CO)c(F)c2)no1` [Example 15, 2-Fluoro-N-[(1R)-2-hydroxy-1-methylethyl]-4-{5-[(1R)-1-(4-isobutyrylphenoxy)propyl]-1,2,4-oxadiazol-3-yl}benzamide] it is 5 to 20%; for `CC[C@@H](Oc1ccc(C(=O)C2CC2)cc1)c1nc(-c2ccc(C(=O)N[C@H](C)[C@@H](O)CO)c(F)c2)no1` [Example 19, 4-(5-{(1R)-1-[4-(Cyclopropylcarbonyl)phenoxy]propyl}-1,2,4-oxadiazol-3-yl)-N-[(1R,2R)-2,3-dihydroxy-1-methylpropyl]-2-fluorobenzamide] it is 5 to 20%.
The figure for `CC[C@@H](Oc1ccc(C(=O)C2CC2)cc1)c1nc(-c2ccc(C(=O)N[C@@H](C)CO)c(F)c2)no1` [Example 4, 4-(5-{(1R)-1-[4-(Cyclopropylcarbonyl)phenoxy]propyl}-1,2,4-oxadiazol-3-yl)-2-fluoro-N-[(1S)-2-hydroxy-1-methylethyl]benzamide] is 5 to 20%.
The figure for `C[C@H](CO)NC(=O)c1ccc(-c2noc([C@@H](C)Oc3ccc(C(=O)C4CC4)cc3)n2)cc1F` [Example 10, 4-(5-{(1R)-1-[4-(Cyclopropylcarbonyl)phenoxy]ethyl}-1,2,4-oxadiazol-3-yl)-2-fluoro-N-[(1R)-2-hydroxy-1-methylethyl]benzamide] is 5 to 20%; for `CC[C@@H](Oc1ccc(C(=O)C2CC2)cc1)c1nc(-c2ccc(C(=O)N[C@H](C)CO)c(F)c2)no1` [Example 3, 4-(5-{(1R)-1-[4-(Cyclopropylcarbonyl)phenoxy]propyl}-1,2,4-oxadiazol-3-yl)-2-fluoro-N-[(1R)-2-hydroxy-1-methylethyl]benzamide] it is 5 to 20%; for `C[C@@H](Oc1ccc(C(=O)C2CC2)cc1)c1nc(-c2ccc(C(=O)N[C@H](C)[C@@H](O)CO)c(F)c2)no1` [Example 23, 4-(5-{(1R)-1-[4-(Cyclopropylcarbonyl)phenoxy]ethyl}-1,2,4-oxadiazol-3-yl)-N-[(1R,2R)-2,3-dihydroxy-1-methylpropyl]-2-fluorobenzamide] it is over 20%.
Take `C[C@@H](Oc1ccc(C(=O)C2CC2)cc1)c1nc(-c2ccc(C(=O)NC(CO)CO)c(F)c2)no1` [Example 7, 4-(5-{(1R)-1-[4-(Cyclopropylcarbonyl)phenoxy]ethyl}-1,2,4-oxadiazol-3-yl)-2-fluoro-N-[2-hydroxy-1-(hydroxymethyl)ethyl]benzamide]: the inhibition in vivo at 10 mg/kg was over 20%.
On to `C[C@@H](Oc1ccc(C(=O)C2CC2)cc1)c1nc(-c2ccc(C(=O)NC3CCCC3O)c(F)c2)no1` (stereo in doubt) [Example 11, 4-(5-{(1R)-1-[4-(Cyclopropylcarbonyl)phenoxy]ethyl}-1,2,4-oxadiazol-3-yl)-2-fluoro-N-[(1S,2S)-2-hydroxycyclopentyl]benzamide], for which the inhibition in vivo at 10 mg/kg fell in the range of 5 to 20%.
To `CC[C@@H](Oc1ccc(C(=O)C2CC2)cc1)c1nc(-c2ccc(C(=O)N[C@@H](CO)C(N)=O)c(F)c2)no1` [Example 2, N-[(1S)-2-Amino-1-(hydroxymethyl)-2-oxoethyl]-4-(5-{(1R)-1-[4-(cyclopropylcarbonyl)phenoxy]propyl}-1,2,4-oxadiazol-3-yl)-2-fluorobenzamide] belongs over 20%; to `CC[C@@H](Oc1ccc(C(=O)C(C)C)cc1)c1nc(-c2ccc(C(=O)NC(CO)CO)c(F)c2)no1` [Example 16, 2-Fluoro-N-[2-hydroxy-1-(hydroxymethyl)ethyl]-4-{5-[(1R)-1-(isobutyrylphenoxy)propyl]-1,2,4-oxadiazol-3-yl}benzamide], 5 to 20%; to `CC[C@@H](Oc1ccc(C(=O)C2CC2)cc1)c1nc(-c2ccc(C(=O)NC[C@H](O)CO)c(F)c2)no1` [Example 1, 4-(5-{(1R)-1-[4-(Cyclopropylcarbonyl)phenoxy]propyl}-1,2,4-oxadiazol-3-yl)-N-[(2S)-2,3-dihydroxypropyl]-2-fluorobenzamide], over 20%.
On to `C[C@@H](CO)NC(=O)c1ccc(-c2noc([C@@H](C)Oc3ccc(C(=O)C4CC4)cc3)n2)cc1F` [Example 8, 4-(5-{(1R)-1-[4-(Cyclopropylcarbonyl)phenoxy]ethyl}-1,2,4-oxadiazol-3-yl)-2-fluoro-N-[(1S)-2-hydroxy-1-methylethyl]benzamide], for which the inhibition in vivo at 10 mg/kg is 5 to 20%.
As to `CC[C@@H](Oc1ccc(C(=O)C2CCC2)cc1)c1nc(-c2ccc(C(=O)NC(CO)CO)c(F)c2)no1` [Example 13, 4-(5-{(1R)-1-[4-(Cyclobutylcarbonyl)phenoxy]propyl}-1,2,4-oxadiazol-3-yl)-2-fluoro-N-[2-hydroxy-1-(hydroxymethyl)ethyl]benzamide], the inhibition in vivo at 10 mg/kg is 5 to 20%.
Turning to `CC[C@@H](Oc1ccc(C(=O)C(C)(C)C)cc1)c1nc(-c2ccc(C(=O)NC(CO)CO)c(F)c2)no1` [Example 12, 4-(5-{(1R)-1-[4-(2,2-Dimethylpropanoyl)phenoxy]propyl}-1,2,4-oxadiazol-3-yl)-2-fluoro-N-[2-hydroxy-1-(hydroxymethyl)ethyl]benzamide], the inhibition in vivo at 10 mg/kg lay within 5 to 20%.
